Test results: patent US20090148426A1, “COMPOSITION FOR LIFE EXTENSION AND METHOD OF EXTENDING THE LIFE” (priority 2005, published 2009)

Columns and labels:
[1] = system: senescence-accelerated model mice (SAMP8); assay: Motor activities of senescence-accelerated model mice (SUPERMEX); assay type: in vivo, mouse; conditions: for Motor activities (Count) / Motor activities, relative proportion to the control group (control = 100): feedstuff containing 0.4%, 11th month after start of test; for Motor activities (Count): average from 16 o'clock to 9 o'clock next morning, n=4 to 7; for Motor activities, relative proportion to the control group (control = 100): control group level taken as 100; for Inhibition of deterioration of the motor activity (in words): ingestion with feedstuff containing 0.4%
Description: (§1) Three groups were set as follows. One is a group, to which feedstuff (CE-2, a product of CLEA Japan, Inc.) containing 0.4% of reduced coenzyme Q10 produced in Production Example 1 (containing about 1% by weight of oxidized coenzyme Q10) was given. Another group is a group, to which feedstuff (CE-2, a product of CLEA Japan, Inc.) containing 0.4% of commercially-available oxidized coenzyme Q10 (100% oxidized coenzyme Q10, a product of Kaneka Corporation) was given. The rest is a control group, to which only basic feedstuff (CE-2, a product of CLEA Japan, Inc.) was given. Each group consisted of 8 to 10 senescence-accelerated model mice (SAMP8, 3-week old, male). Each group was allowed free access to the feedstuff. During the test period, measurements of motor activities and recording of the number of dead mice were periodically performed. The dose of reduced and oxidized coenzyme Q10 as estimated from the feed consumption and animal body weight corresponded to about 300 to 500 mg/kg/day.
(§2) Results are illustrated in Tables 1 and 2. Table 1 illustrates the survival rates in the control group, the reduced coenzyme Q10-ingested group, and the oxidized coenzyme Q10-ingested group at the 13th month after the start of the test. Each data consists of n=8 to 10. The survival rate was assayed by the Kaplan-Meier method. The symbol “*” expresses that there is a significant difference relative to the control group at the degree of risk of 5%. Table 2 illustrates averages of motor activities (measuring apparatus: SUPERMEX, a product of Muromachi machinery) over a period from 16 o'clock to 9 o'clock in the morning of next day, and the relative proportions to the control group, estimated by assuming the level of the control group as 100. The data illustrated in Table 2 are values for each of the control group, the reduced coenzyme Q10-ingested group, and the oxidized coenzyme Q10-ingested group at the 11th month after the start of the test. Each data consist of n=4 to 7, and significant difference was tested by t-test.

[2] = system: senescence-accelerated model mice (SAMP8); assay: Life extending effect for a senescence-accelerated model mouse (survival rate); assay type: in vivo; conditions: for Survival Rate (%): SAMP8 male mice, feedstuff containing 0.4% (about 300 to 500 mg/kg/day), 13th month after start of test, Kaplan-Meier, n=8 to 10; for Extension of a life span (in words): SAMP8 mice, ingestion with feedstuff containing 0.4%
Description: In order to evaluate these life extension effects, a special senescence-accelerated model mouse (for example, SAMP8), which has a shorter lifetime than a common mouse, may be used as a model for evaluations in vivo, for example. […] This mouse is very useful model for evaluating effects over a life span. The aging states shown in this mouse extremely resembles the aging states of humans, and is also useful to evaluate the health condition of humans in a senectitude.
as §1, §2

[3] = system: rats; conditions: every day over 52 weeks at 1,200 mg/kg/day; cited from earlier work
[4] = system: rats; conditions: rats bred with unsaturated fatty acid-enriched feed; cited from earlier work
[5] = system: mice; conditions: cited from earlier work

Compound	Motor activities (Count) [1] [Count]	Motor activities, relative proportion to the control group (control = 100) [1]	Inhibition of deterioration of the motor activity (in words) [1]	Survival Rate (%) [2] [%]	Extension of a life span (in words) [2]	Toxic effect in chronic toxicity test [3]	Effect on life span of rats [4]	Effect on life span of mice [5]
COC1=C(OC)C(=O)C(C/C=C(\C)CC/C=C(\C)CC/C=C(\C)CC/C=C(\C)CC/C=C(\C)CC/C=C(\C)CC/C=C(\C)CC/C=C(\C)CC/C=C(\C)CCC=C(C)C)=C(C)C1=O [Oxidized coenzyme Q10, oxidized coenzyme Q10]	12754	(119)	slightly improved	40	slightly improved			
COc1c(O)c(C)c(C/C=C(\C)CC/C=C(\C)CC/C=C(\C)CC/C=C(\C)CC/C=C(\C)CC/C=C(\C)CC/C=C(\C)CC/C=C(\C)CC/C=C(\C)CCC=C(C)C)c(O)c1OC [Reduced coenzyme Q10, reduced coenzyme Q10]	17520	(163)	inhibition of deterioration of the motor activity	75	remarkable extension of a life span			
COC1=C(OC)C(=O)C(C/C=C(\C)CC/C=C(\C)CC/C=C(\C)CC/C=C(\C)CC/C=C(\C)CC/C=C(\C)CC/C=C(\C)CC/C=C(\C)CC/C=C(\C)CCC=C(C)C)=C(C)C1=O [coenzyme Q10]						no toxic effect was observed		
ubiquinone							extended the life span of the rat	did not affect the life span of mice
